Data as given in ChEMBL document CHEMBL3046050, “Synthesis of bioactive spiro-2-[3-(2-phenyl)-3H-indolyl]-1-aryl-3-phenylaziridines and SAR studies on their antimicrobial behavior” (Med Chem Res, 2009).

Experiments:
[1] = tested on: Brevundimonas diminuta; test: Antimicrobial activity against Brevundimonas diminuta at 20 ug/ml after 24 hr by disk diffusion method relative to ampicillin; format: functional
[2] = Acute toxicity in Rattus norvegicus (rat); format: organism-based; settings: in vivo
[3] = tested on: Bacillus subtilis; test: Antimicrobial activity against Bacillus subtilis at 20 ug/ml after 24 hr by disk diffusion method; format: functional; settings: read-out: IZ
[4] = tested on: Priestia megaterium; test: Antimicrobial activity against Bacillus megaterium at 20 ug/ml after 24 hr by disk diffusion method; format: functional; settings: read-out: IZ
[5] = tested on: Escherichia coli; test: Antimicrobial activity against Escherichia coli at 20 ug/ml after 24 hr by disk diffusion method; format: functional; settings: read-out: IZ
[6] = tested on: Brevundimonas diminuta; test: Antimicrobial activity against Brevundimonas diminuta at 20 ug/ml after 24 hr by disk diffusion method; format: functional; settings: read-out: IZ
[7] = tested on: Bacillus subtilis; test: Antimicrobial activity against Bacillus subtilis at 20 ug/ml after 24 hr by disk diffusion method relative to ampicillin; format: functional
[8] = tested on: Priestia megaterium; test: Antimicrobial activity against Bacillus megaterium at 20 ug/ml after 24 hr by disk diffusion method relative to ampicillin; format: functional
[9] = tested on: Escherichia coli; test: Antimicrobial activity against Escherichia coli at 20 ug/ml after 24 hr by disk diffusion method relative to ampicillin; format: functional

SMILES	Ratio [1]	LD50 [2] [mg/kg]	zone of inhibition at 20 µg/mL [3] [mm]	zone of inhibition at 20 µg/mL [4] [mm]	zone of inhibition at 20 µg/mL [5] [mm]	zone of inhibition at 20 µg/mL [6] [mm]	Ratio [7]	Ratio [8]	Ratio [9]
Oc1cccc(N2C(c3ccccc3)C23C(c2ccccc2)=Nc2ccccc23)c1 (stereo not drawn)	174.1	5080	11.5	10.5	10.5	15.7	123.7	89	100
CC1(C)S[C@@H]2[C@H](NC(=O)[C@H](N)c3ccccc3)C(=O)N2[C@H]1C(=O)O [AMPICILLIN]	–	–	9.3	11.8	10.5	9	–	–	–
CCOc1cccc(N2C(c3ccccc3)C23C(c2ccccc2)=Nc2ccccc23)c1 (stereo not drawn)	288.9	4640	24.5	20.8	24.3	26	263.4	176.6	231.7
O=[N+]([O-])c1ccc(N2C(c3ccccc3)C23C(c2ccccc2)=Nc2ccccc23)cc1 (stereo not drawn)	127.8	5380	8.3	8.7	8.8	11.5	89.6	73.4	84.1
O=[N+]([O-])c1cccc(N2C(c3ccccc3)C23C(c2ccccc2)=Nc2ccccc23)c1 (stereo not drawn)	229.6	4500	17.2	16.8	17.7	20.7	184.6	142.7	168.3
CCOc1ccccc1N1C(c2ccccc2)C12C(c1ccccc1)=Nc1ccccc12 (stereo not drawn)	303.7	4820	25.7	22.2	25	27.3	276	187.9	238.1
O=C(O)c1ccccc1N1C(c2ccccc2)C12C(c1ccccc1)=Nc1ccccc12 (stereo not drawn)	64.8	3840	3.3	4.3	4.2	5.8	35.8	36.7	39.7
Clc1ccc(N2C(c3ccccc3)C23C(c2ccccc2)=Nc2ccccc23)cc1 (stereo not drawn)	118.5	4240	7.3	6.8	7.7	10.7	78.6	57.9	73
Clc1ccccc1N1C(c2ccccc2)C12C(c1ccccc1)=Nc1ccccc12 (stereo not drawn)	222.2	4040	16.3	15.5	17	20	175.6	131.4	161.9
Clc1cccc(N2C(c3ccccc3)C23C(c2ccccc2)=Nc2ccccc23)c1 (stereo not drawn)	207.4	4380	15.5	14.3	15.8	18.7	166.7	121.5	150.8
O=[N+]([O-])c1ccccc1N1C(c2ccccc2)C12C(c1ccccc1)=Nc1ccccc12 (stereo not drawn)	244.4	3560	19.3	17.8	18.3	22	207.9	151.1	174.6
COc1cccc(N2C(c3ccccc3)C23C(c2ccccc2)=Nc2ccccc23)c1 (stereo not drawn)	253.7	5120	21.5	17.7	20.8	22.8	231.2	149.7	198.4
Oc1ccccc1N1C(c2ccccc2)C12C(c1ccccc1)=Nc1ccccc12 (stereo not drawn)	188.9	4360	12.7	12.7	11.3	17	136.2	107.3	107.9
Oc1ccc(N2C(c3ccccc3)C23C(c2ccccc2)=Nc2ccccc23)cc1 (stereo not drawn)	85.2	4480	5.5	5.5	6	7.7	59.1	46.6	57.1
COc1ccccc1N1C(c2ccccc2)C12C(c1ccccc1)=Nc1ccccc12 (stereo not drawn)	266.7	5150	23	18.7	21.2	24	247.3	158.2	201.6
c1ccc(C2=Nc3ccccc3C23C(c2ccccc2)N3c2ccccc2)cc1 (stereo not drawn)	148.1	4240	10.2	9.8	9.5	13.3	109.3	83.3	90.5
Cc1cccc(N2C(c3ccccc3)C23C(c2ccccc2)=Nc2ccccc23)c1 (stereo not drawn)	192.6	3840	14.5	13.5	13.5	17.3	155.9	114.4	128.6
